According to US12618070B2, “Increasing Atoh1 life to drive sensorineural hair cell differentiation” (Massachusetts Eye and Ear Infirmary, priority 2014, dated 2026):
Entries after “also recorded” stand apart in the source; their conditions may differ. Peptide text beside a SMILES is read from it. * marks the point of attachment. Cbz = O=C(OCc1ccccc1)*

B1: Atoh1: wild-type Atoh1 protein, FLAG- or FLAG-HA-tagged, expressed in HEK/293T cells (protein)
chain: MSRLLHAEEWAEVKELGDHHRQPQPHHLPQPPPPPQPPATLQAREHPVYPPELSLLDSTDPRAWLAPTLQGICTARAAQYLLHSPELGASEAAAPRDEVDGRGELVRRSSGGASSSKSPGPVKVREQLCKLKGGVVVDELGCSRQRAPSSKQVNGVQKQRRLAANARERRRMHGLNHAFDQLRNVIPSFNNDKKLSKYETLQMAQIYINALSELLQTPSGGEQPPPPPASCKSDHHHLRTAASYEGGAGNATAAGAQQASGGSQRPTPPGSCRTRFSAPASAGGYSVQLDALHFSTFEDSALTAMMAQKNLSPSLPGSILQPVQEENSKTSPRSHRSDGEFSPHSHYSDSDEAS
modifications: left off: large carriers
notes: wild-type Atoh1 protein, FLAG- or FLAG-HA-tagged, expressed in HEK/293T cells

How the values were obtained:
Assay type in all cases: cell-based
[1] = test system: Atoh1; assay: Atoh1 level after proteasome inhibition in HEK cells transfected with FLAG-Atoh1; conditions: MG132 10 uM, 3 hours, vs DMSO
Experimental: (§1) FIGS. 2A-E. Atoh1 is degraded by the ubiquitin-proteasome pathway. […] HEK cells were transfected with FLAG-Atoh1 plasmid (1 ug/ml) for 24 hours, and incubated with either DMSO or MG132 (10 uM) for 3 hours and immunoprecipitated using FLAG (Atoh1) or beta-actin (loading control) antibodies. (B) FLAG-HA-Atoh1 293T cells were treated with cycloheximide (100 ug/ml) and MG132 (10 uM) at the indicated times and immunoprecipitated with FLAG (Atoh1) or beta-actin (loading control) antibodies. Time of treatment is indicated. (C) Half-lives based on densitometry from 3 experiments are shown. The ratio of Atoh1 to β-actin was plotted after normalization. Error bars indicate SEM. (D) & (E). Atoh1 is polyubiquitylated and degraded by the ubiquitin-proteasome pathway. FLAG-HA-Atoh1 293T cells were treated with either DMSO or MG132 (10 uM) for 6 hours. Lysates were immunoprecipitated with anti-FLAG antibody and subjected to immunoblotting with a ubiquitin antibody. FLAG was used to assess immunoprecipitation.
To determine if the ubiquitin-proteasome pathway was involved in Atoh1 degradation, HEK cells were transfected with FLAG-Atoh1 (1 μg/ml) using Lipofectamine 2000 (Invitrogen) for […] and either DMSO or MG132 (10 μM) for […]. Transfected cells were lysed in Pierce IP Lysis Buffer (Thermo) containing 1× complete protease inhibitors and 1×PhosSTOP phosphatase inhibitors (Roche). […]

[2] = test system: Atoh1; assay: Cycloheximide chase of Atoh1 with proteasome inhibitor or Huwe1 shRNA in FLAG-HA-Atoh1 293T cells; conditions: cycloheximide 100 ug/ml plus MG132 10 uM
Experimental: as §1, with “Atoh1 is polyubiquitylated and degraded by the ubiquitin-proteasome pathway. FLAG-HA-Atoh1 293T cells were treated with either DMSO or MG132 (10 uM) for 6 hours. Lysates were immunoprecipitated with anti-FLAG antibody and subjected to immunoblotting with a ubiquitin antibody. FLAG was used to assess immunoprecipitation.” left out
FIGS. 9A-D. Huwe1 plasmid increased and Huwe1 siRNA inhibited degradation of Atoh1. […] Quantification of Atoh1, Huwe1 and a loading control (HSC70) were performed by Western blotting and densitometry. […] Atoh1 (FLAG) and Huwe1 were analyzed by Western blotting and densitometry normalized to loading controls in three experiments. […]
HEK cells were transfected with either FLAG-Atoh1 (wild-type), or indicated mutant FLAG-Atoh1 plasmids (1 μg/ml) using Lipofectamine 2000 (3 μl per 1 μg of cDNA, Invitrogen). […] Protein bands were quantified by densitometry. The half-lives of indicated proteins were calculated using GraphPad Prism 6 software and a one-phase exponential-decay model.

[3] = test system: Atoh1; assay: Atoh1 level in P1 organ of Corti explants treated with proteasome inhibitor; conditions: P1 mouse organ of Corti, MG132 10 uM, 3 hours, vs DMSO
Experimental: FIG. 10. Inhibition of proteasome activity stabilizes Atoh1 in the cochlea. The organ of Corti from a P1 mouse was treated with proteasome inhibitor, MG132 (10 uM) for 3 hours. Atoh1 levels were higher in the MG132-treated organ of Corti. DMSO served as control; β-actin is a loading control.
Cochlear tissues were dissected from 1-day postnatal CD-1 mice (Charles River Laboratories). Spiral ganglion, Reissner's membrane, and the hook region of the organ of Corti were removed to obtain a flat cochlear surface preparation (Parker et al., 2010). Explants were plated onto 4-well plates (Greiner Bio-One) coated with Matrigel (BD Biosciences) diluted 1:10 in DMEM supplemented with 10% fetal bovine serum overnight.
To test whether proteasomal activity regulated Atoh1 in the cochlea we treated P1 organ of Corti explants with proteasome inhibitor, MG132 (10 uM).

[4] = test system: Atoh1; assay: Polyubiquitylation of Atoh1: anti-FLAG immunoprecipitation, ubiquitin immunoblot; conditions: MG132 10 uM, 6 hours
Experimental: as §1, with “immunoprecipitation. […]” for “immunoprecipitation.”
We then assessed polyubiquitylation of Atoh1 in the presence of a proteasome inhibitor which would prevent degradation of the ubiquitinated protein. […] The cell lysates were immunoprecipitated with anti-FLAG antibody, and the pattern of ubiquitylation was assessed with an anti-ubiquitin antibody.

[5] = test system: FLAG-HA-Atoh1 293T cells; assay: Cycloheximide chase, half-life of Atoh1 by Western blotting and densitometry
Experimental: FIGS. 1A-B. Atoh1 is a short-lived protein. (A) FLAG-HA-Atoh1 293T cells were treated with cycloheximide (100 ug/ml) and harvested at the indicated times. Lysates were processed for Western blotting with FLAG antibody (Atoh1) or β-actin antibody (loading control). Labels indicate the time of chase. (B) Protein half-lives based on densitometry. The ratio of Atoh1 to β-actin was plotted after normalizing to the initial ratio set to 100. Error bars indicate SEM.
HEK cells were transfected with either FLAG-Atoh1 (wild-type), or indicated mutant FLAG-Atoh1 plasmids (1 μg/ml) using Lipofectamine 2000 (3 μl per 1 μg of cDNA, Invitrogen). Forty-eight hours after transfection, 100 μg/ml cycloheximide (Sigma) was added to block protein synthesis. Cells were harvested at 0, 30, 60, 120, and 240 minutes. Equal amounts of protein from each treatment were taken for Western blotting. Protein bands were quantified by densitometry. The half-lives of indicated proteins were calculated using GraphPad Prism 6 software and a one-phase exponential-decay model.
To determine the half-life of Atoh1, we used cycloheximide to prevent new protein synthesis and followed the time course of disappearance of previously synthesized Atoh1 by Western blotting during a chase period. We transfected 293T cells with FLAG-HA-Atoh1 and treated with cycloheximide at 48 hours after transfection.

Row | Molecule | level of Atoh1 [1] | half-life of Atoh1 [2] | Atoh1 level in organ of Corti [3] | level of Atoh1 protein ([4]; FLAG-HA-Atoh1 293T cells, reprobed blot and input protein) | density of high molecular weight poly-ubiquitin forms of Atoh1 ([4]; FLAG-HA-Atoh1 cells, vs DMSO) | turnover rate of Atoh1 [5]
1 | CC(C)C[C@@H](C=O)NC(=O)[C@H](CC(C)C)NC(=O)[C@H](CC(C)C)NC(=O)OCc1ccccc1 [MG132] (Cbz-Leu-Leu-Leu-aldehyde) | significantly increased; also recorded: stabilized Atoh1 expression | extended the half-life | increased; also recorded: higher | increased the level of protein | increased the density | –
2 | B1 | – | – | – | – | – | less than 1 hour
